Patent publication US20090054413A1, “Novel 5,6-Dihydropyrazolo[3,4-E] [L,4]Diazepin-4 (IH) -One Derivatives for the Treatment of Asthma and Chronic Obstructive Pulmonary Disease” (AstraZeneca AB, priority 2005, published 2009)

Molecular target: recombinant Human Phosphodiesterase B2 (PDE4B2) (Homo sapiens, UniProt Q07343)
Assay: Human Phosphodiesterase B2 Alpha Screen Assay
Assay type: biochemical
Conditions: recombinant human PDE4B2, cAMP substrate, 60 min at room temperature
Protocol: Human Phosphodiesterase B2 Alpha Screen Assay
The assay uses recombinant Human Phosphodiesterase B2 (PDE4B2) produced in house (PrAZL0133), stored at −20° C. The substrate uses cAMP, part of the Alpha Screen cAMP kit (Perkin Elmer, Cat #6760625M), stored at 4° C. The Alpha Screen kit also includes biotinylated cAMP, acceptor and donor beads.
The assay additions were as follows: Test compounds and controls were added to white 384-well flat-bottom plates (Greiner, Cat #781075), 0.2 μl in 100% DMSO, followed by 10 μl PDE4B2 in reaction buffer. The reaction buffer constitution was: 50 mM Tris (pH 7.5), 8.3 mM MgCl2, 1.7 mM EGTA and 0.01% (w/v) Brij®35. The enzyme and the compounds were incubated at room temperature for 15 minutes. Then 10 μl cAMP in reaction buffer was added. The assay was stopped after 60 minutes incubation at room temperature by adding 10 μl acceptor beads in detection buffer with 40 mM EDTA. The detection buffer constitution was: 5 mM Tris (pH 7.5), 0.1% (w/v) BSA and 0.1% (v/v) Tween 20. This addition followed by an addition of 10 μl donor beads in detection buffer, with biotinylated cAMP. The plates were then incubated, dark at room temperature, for 5 hours followed by measurement on a Fusion™-α analyser. IC50 values (presented in Table 1) were determined using Xlfit curve fitting using model 205.

recombinant Human Phosphodiesterase B2 (PDE4B2), sequence (Q07343 1-564 isoform Q07343-2): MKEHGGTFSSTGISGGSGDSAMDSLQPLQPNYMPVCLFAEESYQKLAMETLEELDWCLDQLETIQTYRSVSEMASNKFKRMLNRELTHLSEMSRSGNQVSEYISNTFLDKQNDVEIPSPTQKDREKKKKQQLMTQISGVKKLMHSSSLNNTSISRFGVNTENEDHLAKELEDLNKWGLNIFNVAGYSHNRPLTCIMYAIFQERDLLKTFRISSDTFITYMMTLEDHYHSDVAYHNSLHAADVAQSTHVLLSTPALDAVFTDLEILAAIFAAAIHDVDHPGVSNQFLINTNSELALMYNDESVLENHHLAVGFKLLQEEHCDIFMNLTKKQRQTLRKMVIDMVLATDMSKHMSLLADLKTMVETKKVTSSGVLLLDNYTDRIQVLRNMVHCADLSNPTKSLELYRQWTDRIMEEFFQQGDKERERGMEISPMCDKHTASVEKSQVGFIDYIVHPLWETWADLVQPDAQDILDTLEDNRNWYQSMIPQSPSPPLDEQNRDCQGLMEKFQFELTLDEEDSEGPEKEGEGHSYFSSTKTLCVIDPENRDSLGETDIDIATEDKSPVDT

| Compound | IC50 [nM] |
| --- | --- |
| CCc1nn(C2CCCC2)c2c1C(=O)NCC(CCC(=O)NCCN(C)C)=N2 [Example 29, 3-(1-Cyclopentyl-3-ethyl-4-oxo-1,4,5,6-tetrahydropyrazolo[3,4-e][1,4]diazepin-7-yl)-N-[2-(dimethylamino)ethyl]propanamide] | 4480 |
| CCc1nn(C2CCS(=O)(=O)CC2)c2c1C(=O)NCC(c1ccccc1)=N2 [Example 35, 1-(1,1-Dioxidotetrahydro-2H-thiopyran-4-yl)-3-ethyl-7-phenyl-5,6-dihydropyrazolo[3,4-e][1,4]diazepin-4(1H)-one] | 40.3 |
| CCc1nn(C2CCCC2)c2c1C(=O)NCC(c1ccc(O)c(C(=O)O)c1)=N2 [Example 27, 5-(1-Cyclopentyl-3-ethyl-4-oxo-1,4,5,6-tetrahydropyrazolo[3,4-e][1,4]diazepin-7-yl)-2-hydroxybenzoic acid] | 0.52 |
| CCc1nn(C2CCS(=O)(=O)C2)c2c1C(=O)NCC(c1ccccc1)=N2 (stereo not drawn) [Example 32, 1-(1,1-Dioxidotetrahydrothien-3-yl)-3-ethyl-7-phenyl-5,6-dihydropyrazolo[3,4-e][1,4]diazepin-4(1H)-one] | 5.8 |
| Cc1nn(C2CCCC2)c2c1C(=O)NCC(c1ccccc1)=N2 [Example 36, 1-Cyclopentyl-3-methyl-7-phenyl-5,6-dihydropyrazolo[3,4-e][1,4]diazepin-4(1H)-one] | 9.49 |
| CCc1nn(C2CCCC2)c2c1C(=O)NCC(c1ccc(OC)cc1)=N2 [Example 2, 1-cyclopentyl-3-ethyl-7-(4-methoxyphenyl)-5,6-dihydropyrazolo[3,4-e][1,4]diazepin-4(1H)-one] | 0.98 |
| CCc1nn(-c2ccc(F)cc2)c2c1C(=O)NCC(c1ccccc1)=N2 [Example 3, 3-ethyl-1-(4-fluorophenyl)-7-phenyl-5,6-dihydropyrazolo[3,4-e][1,4]diazepin-4(1H)-one] | 6.1 |
| CCc1nn(C2CCCC2)c2c1C(=O)NCC(c1ccc(Br)cc1)=N2 [Example 8, 7-(4-Bromophenyl)-1-cyclopentyl-3-ethyl-5,6-dihydropyrazolo[3,4-e][1,4]diazepin-4(1H)-one] | 0.84 |
| CCc1nn(C2CC[S+]([O-])CC2)c2c1C(=O)NCC(c1ccccc1)=N2 (stereo not drawn) [Example 34, 3-Ethyl-1-(1-oxidotetrahydro-2H-thiopyran-4-yl)-7-phenyl-5,6-dihydropyrazolo[3,4-e][1,4]diazepin-4(1H)-one] | 99.1 |
| CCc1nn(C2CCCC2)c2c1C(=O)NCC(c1ccc(Cl)cc1)=N2 [Example 12, 7-(4-Chlorophenyl)-1-cyclopentyl-3-ethyl-5,6-dihydropyrazolo[3,4-e][1,4]diazepin-4(1H)-one] | 0.57 |
| CCc1nn(C2CCCC2)c2c1C(=O)NCC(c1cc(OC)ccc1OC)=N2 [Example 14, 1-Cyclopentyl-7-(2,5-dimethoxyphenyl)-3-ethyl-5,6-dihydropyrazolo[3,4-e][1,4]diazepin-4(1H)-one] | 0.5 |
| CCc1nn(C2CCCC2)c2c1C(=O)NCC(CCC(=O)O)=N2 [Example 28, 3-(1-Cyclopentyl-3-ethyl-4-oxo-1,4,5,6-tetrahydropyrazolo[3,4-e][1,4]diazepin-7-yl)propanoic acid] | 65.3 |
| CCc1nn(C2CCCC2)c2c1C(=O)NCC(c1ccc(C)cc1)=N2 [Example 9, 1-Cyclopentyl-3-ethyl-7-(4-methylphenyl)-5,6-dihydropyrazolo[3,4-e][1,4]diazepin-4(1H)-one] | 0.61 |
| CCc1nn(C2CCCC2)c2c1C(=O)NCC(c1ccc(F)cc1)=N2 [Example 21, 1-Cyclopentyl-3-ethyl-7-(4-fluorophenyl)-5,6-dihydropyrazolo[3,4-e][1,4]diazepin-4(1H)-one] | 1.05 |
| CCc1nn(C2CCCC2)c2c1C(=O)NCC(c1cccc(OC)c1)=N2 [Example 19, 1-Cyclopentyl-3-ethyl-7-(3-methoxyphenyl)-5,6-dihydropyrazolo[3,4-e][1,4]diazepin-4(1H)-one] | 0.55 |

More lines, in order of falling IC50, values ahead:

| IC50 [nM] | Compound |
| --- | --- |
| 426 | CSc1nn(-c2ccccc2)c2c1C(=O)NCC(c1ccccc1)=N2 [Example 31, 3-(Methylthio)-1,7-diphenyl-5,6-dihydropyrazolo[3,4-e][1,4]diazepin-4(1H)-one] |
| 385 | CCc1nn(C2CCCC2)c2c1C(=O)NC(c1ccccc1)C(C)=N2 (stereo not drawn) [Example 25, 1-Cyclopentyl-3-ethyl-7-methyl-6-phenyl-5,6-dihydropyrazolo[3,4-e][1,4]diazepin-4(1H)-one] |
| 158 | CCc1nn(C2CCCC2)c2c1C(=O)NCC(c1ccccc1)N2 (stereo not drawn) [Example 30, 1-Cyclopentyl-3-ethyl-7-phenyl-5,6,7,8-tetrahydropyrazolo[3,4-e][1,4]diazepin-4(1H)-one] |
| 103 | CCc1nn(C2CCCC2)c2c1C(=O)N(C)CC(c1ccccc1)=N2 [Example 26, 1-Cyclopentyl-3-ethyl-5-methyl-7-phenyl-5,6-dihydropyrazolo[3,4-e][1,4]diazepin-4(1H)-one] |
| 43 | CCc1nn(-c2ccc(S(C)(=O)=O)cc2)c2c1C(=O)NCC(c1ccccc1)=N2 [Example 5, 3-ethyl-1-[4-(methylsulfonyl)phenyl]-7-phenyl-5,6-dihydropyrazolo[3,4-e][1,4]diazepin-4(1H)-one] |
| 28.7 | CCc1nn(C2CCCC2)c2c1C(=O)NCC(CCC(=O)OC)=N2 [Example 20, Methyl 3-(1-cyclopentyl-3-ethyl-4-oxo-1,4,5,6-tetrahydropyrazolo[3,4-e][1,4]diazepin-7-yl)propanoate] |
| 11 | CCc1nn(-c2ccccc2)c2c1C(=O)NCC(c1ccccc1)=N2 [Example 6, 3-Ethyl-1,7-diphenyl-5,6-dihydropyrazolo[3,4-e][1,4]diazepin-4(1H)-one] |
| 4.8 | CCc1nn(-c2cccc([N+](=O)[O-])c2)c2c1C(=O)NCC(c1ccccc1)=N2 [Example 4, 3-ethyl-1-(3-nitrophenyl)-7-phenyl-5,6-dihydropyrazolo[3,4-e][1,4]diazepin-4(1H)-one] |
| 4.16 | CCc1nn(C2CCCC2)c2c1C(=O)NCC(c1ccc(OC(F)(F)F)cc1)=N2 [Example 22, 1-Cyclopentyl-3-ethyl-7-[4-(trifluoromethoxy)phenyl]-5,6-dihydropyrazolo[3,4-e][1,4]diazepin-4(1H)-one] |
| 3.92 | CCc1nn(C2CCCC2)c2c1C(=O)NCC(c1ccc(S(C)(=O)=O)cc1)=N2 [Example 24, 1-Cyclopentyl-3-ethyl-7-[4-(methylsulfonyl)phenyl]-5,6-dihydropyrazolo[3,4-e][1,4]diazepin-4(1H)-one] |
| 3.9 | CCc1nn(C2CCSCC2)c2c1C(=O)NCC(c1ccccc1)=N2 [Example 33, 3-Ethyl-7-phenyl-1-tetrahydro-2H-thiopyran-4-yl-5,6-dihydropyrazolo[3,4-e][1,4]diazepin-4(1H)-one] |
| 2.16 | CCc1nn(C2CCCC2)c2c1C(=O)NCC(c1ccco1)=N2 [Example 17, 1-Cyclopentyl-3-ethyl-7-(2-furyl)-5,6-dihydropyrazolo[3,4-e][1,4]diazepin-4(1H)-one] |
| 1.47 | CCc1nn(C2CCCC2)c2c1C(=O)NCC(c1ccc(OC)c(OC)c1)=N2 [Example 7, 1-Cyclopentyl-7-(3,4-dimethoxyphenyl)-3-ethyl-5,6-dihydropyrazolo[3,4-e][1,4]diazepin-4(1H)-one] |
| 1.21 | CCc1nn(C2CCCC2)c2c1C(=O)NCC(c1ccc(C#N)cc1)=N2 [Example 23, 4-(1-Cyclopentyl-3-ethyl-4-oxo-1,4,5,6-tetrahydropyrazolo[3,4-e][1,4]diazepin-7-yl)benzonitrile] |
| 0.91 | CCc1nn(C2CCCC2)c2c1C(=O)NCC(c1ccccc1OC)=N2 [Example 10, 1-Cyclopentyl-3-ethyl-7-(2-methoxyphenyl)-5,6-dihydropyrazolo[3,4-e][1,4]diazepin-4(1H)-one] |
| 0.9 | CCc1nn(C2CCCC2)c2c1C(=O)NCC(c1ccc(OCc3ccccc3)cc1)=N2 [Example 15, 7-[4-(Benzyloxy)phenyl]-1-cyclopentyl-3-ethyl-5,6-dihydropyrazolo[3,4-e][1,4]diazepin-4(1H)-one] |
| 0.73 | CCc1nn(C2CCCC2)c2c1C(=O)NCC(c1ccc(F)c(F)c1)=N2 [Example 13, 7-(3,4-Difluorophenyl)-1-cyclopentyl-3-ethyl-5,6-dihydropyrazolo[3,4-e][1,4]diazepin-4(1H)-one] |
| 0.59 | CCc1nn(C2CCCC2)c2c1C(=O)NCC(c1ccc(O)c(C(=O)OC)c1)=N2 [Example 11, Methyl 5-(1-cyclopentyl-3-ethyl-4-oxo-1,4,5,6-tetrahydropyrazolo[3,4-e][1,4]diazepin-7-yl)-2-hydroxybenzoate] |
| 0.53 | CCc1nn(C2CCCC2)c2c1C(=O)NCC(C(C)(C)C)=N2 [Example 18, 7-tert-Butyl-1-cyclopentyl-3-ethyl-5,6-dihydropyrazolo[3,4-e][1,4]diazepin-4(1H)-one] |
| 0.43 | CCc1nn(C2CCCC2)c2c1C(=O)NCC(c1ccc3c(c1)OCCCO3)=N2 [Example 16, 1-Cyclopentyl-7-(3,4-dihydro-2H-1,5-benzodioxepin-7-yl)-3-ethyl-5,6-dihydropyrazolo[3,4-e][1,4]diazepin-4(1H)-one] |
| 0.33 | CCc1nn(C2CCCC2)c2c1C(=O)NCC(c1ccccc1)=N2 [Example 1, 1-Cyclopentyl-3-ethyl-7-phenyl-5,6-dihydropyrazolo[3,4-e][1,4]diazepin-4(1H)-one] |
